Assay results: PubChem BioAssay (NCI)
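Step 1: Grow cells in 96-well plates. Step 2: Expose to compound for 48 hours at 5 concentrations. Step 3: Interpolate endpoints linearly; if unreached, use highest concentration. GI50 marks 50% less growth. TGI: total growth inhibition.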

Legend:
Assay in all cases: NCI-60 cell line screen, 48 h
EKVX NSCLC = test system: EKVX NSCLC
786-0 renal = test system: 786-0 renal
HS 578T breast = test system: HS 578T breast
SNB-19 CNS = test system: SNB-19 CNS
CCRF-CEM leukemia = test system: CCRF-CEM leukemia
RPMI-8226 leukemia = test system: RPMI-8226 leukemia
HCC-2998 colon = test system: HCC-2998 colon
MOLT-4 leukemia = test system: MOLT-4 leukemia
SN12C renal = test system: SN12C renal
MDA-MB-231 breast = test system: MDA-MB-231 breast
U251 CNS = test system: U251 CNS
UACC-257 melanoma = test system: UACC-257 melanoma
K-562 leukemia = test system: K-562 leukemia
MCF7 breast = test system: MCF7 breast
NCI-H23 lung = test system: NCI-H23 lung
PC-3 prostate = test system: PC-3 prostate
CAKI-1 renal = test system: CAKI-1 renal
OVCAR-4 ovarian = test system: OVCAR-4 ovarian
HT29 colon = test system: HT29 colon
SK-MEL-28 melanoma = test system: SK-MEL-28 melanoma
SR leukemia = test system: SR leukemia
T-47D breast = test system: T-47D breast
SW-620 colon = test system: SW-620 colon
NCI-H522 lung = test system: NCI-H522 lung
SNB-75 CNS = test system: SNB-75 CNS
NCI/ADR-RES ovarian = test system: NCI/ADR-RES ovarian
SK-MEL-2 melanoma = test system: SK-MEL-2 melanoma
SK-MEL-5 melanoma = test system: SK-MEL-5 melanoma
ACHN renal = test system: ACHN renal
OVCAR-8 ovarian = test system: OVCAR-8 ovarian
UACC-62 melanoma = test system: UACC-62 melanoma
NCI-H460 lung = test system: NCI-H460 lung
HL-60(TB) leukemia = test system: HL-60(TB) leukemia
LOX IMVI melanoma = test system: LOX IMVI melanoma
OVCAR-3 ovarian = test system: OVCAR-3 ovarian
HOP-92 NSCLC = test system: HOP-92 NSCLC
MDA-MB-435 = test system: MDA-MB-435
DU-145 prostate = test system: DU-145 prostate
HOP-62 NSCLC = test system: HOP-62 NSCLC
HCT-15 colon = test system: HCT-15 colon
SF-268 CNS = test system: SF-268 CNS
SF-539 CNS = test system: SF-539 CNS
OVCAR-5 ovarian = test system: OVCAR-5 ovarian
A498 renal = test system: A498 renal
MALME-3M melanoma = test system: MALME-3M melanoma
SF-295 CNS = test system: SF-295 CNS
KM12 colon = test system: KM12 colon
M14 melanoma = test system: M14 melanoma
TK-10 renal = test system: TK-10 renal
COLO 205 colon = test system: COLO 205 colon
HCT-116 colon = test system: HCT-116 colon
A549 NSCLC = test system: A549 NSCLC
BT-549 breast = test system: BT-549 breast
RXF 393 renal = test system: RXF 393 renal
IGROV1 ovarian = test system: IGROV1 ovarian
NCI-H226 lung = test system: NCI-H226 lung
SK-OV-3 ovarian = test system: SK-OV-3 ovarian
UO-31 renal = test system: UO-31 renal

With O=C(Nc1ncc(Cc2ccccc2)s1)c1sc2ccccc2c1Cl the GI50 (EKVX NSCLC) was 969 nM, the TGI (EKVX NSCLC) was > 100000 nM and the GI50 (786-0 renal) was 1320 nM. It also gave a TGI (786-0 renal) of 40100 nM, a GI50 (HS 578T breast) of 537 nM and a TGI (HS 578T breast) of 29900 nM. It also gave a GI50 (SNB-19 CNS) of 777 nM, a TGI (SNB-19 CNS) of 59900 nM and a GI50 (CCRF-CEM leukemia) of 593 nM. For the same compound, the TGI (CCRF-CEM leukemia) was > 100000 nM, the GI50 (RPMI-8226 leukemia) was 1330 nM and the TGI (RPMI-8226 leukemia) was > 100000 nM. The GI50 (HCC-2998 colon) was 552 nM, the TGI (HCC-2998 colon) was 12300 nM and the GI50 (MOLT-4 leukemia) was 680 nM. The TGI (MOLT-4 leukemia) was > 100000 nM, the GI50 (SN12C renal) was 1240 nM and the TGI (SN12C renal) was > 100000 nM. For the same compound, the GI50 (MDA-MB-231 breast) was 1210 nM, the TGI (MDA-MB-231 breast) was 19300 nM and the GI50 (U251 CNS) was 593 nM. For the same compound, the TGI (U251 CNS) was 26000 nM, the GI50 (UACC-257 melanoma) was 1930 nM and the TGI (UACC-257 melanoma) was > 66500 nM. The GI50 (K-562 leukemia) was 434 nM, the TGI (K-562 leukemia) was > 100000 nM and the GI50 (MCF7 breast) was 37 nM. The TGI (MCF7 breast) was > 100000 nM, the GI50 (NCI-H23 lung) was 2250 nM and the TGI (NCI-H23 lung) was > 61600 nM. For the same compound, the GI50 (PC-3 prostate) was 948 nM, the TGI (PC-3 prostate) was > 60400 nM and the GI50 (CAKI-1 renal) was 574 nM. For the same compound, the TGI (CAKI-1 renal) was 24500 nM, the GI50 (OVCAR-4 ovarian) was 3320 nM and the TGI (OVCAR-4 ovarian) was 79400 nM. The GI50 (HT29 colon) was 449 nM, the TGI (HT29 colon) was > 63100 nM and the GI50 (SK-MEL-28 melanoma) was 2180 nM. The TGI (SK-MEL-28 melanoma) was > 80400 nM, the GI50 (SR leukemia) was 522 nM and the TGI (SR leukemia) was > 100000 nM. The GI50 (T-47D breast) was 71.3 nM, the TGI (T-47D breast) was > 100000 nM and the GI50 (SW-620 colon) was 476 nM. For the same compound, the TGI (SW-620 colon) was > 100000 nM, the GI50 (NCI-H522 lung) was 739 nM and the TGI (NCI-H522 lung) was 15800 nM. It also gave a GI50 (SNB-75 CNS) of 368 nM, a TGI (SNB-75 CNS) of 12900 nM and a GI50 (NCI/ADR-RES ovarian) of 573 nM. For the same compound, the TGI (NCI/ADR-RES ovarian) was 35100 nM, the GI50 (SK-MEL-2 melanoma) was 534 nM and the TGI (SK-MEL-2 melanoma) was > 64400 nM. It also gave a GI50 (SK-MEL-5 melanoma) of 63.4 nM, a TGI (SK-MEL-5 melanoma) of 691 nM and a GI50 (ACHN renal) of 496 nM. The TGI (ACHN renal) was 48600 nM, the GI50 (OVCAR-8 ovarian) was 2540 nM and the TGI (OVCAR-8 ovarian) was > 100000 nM. The GI50 (UACC-62 melanoma) was 147 nM, the TGI (UACC-62 melanoma) was 17800 nM and the GI50 (NCI-H460 lung) was 253 nM. The TGI (NCI-H460 lung) was 18400 nM, the GI50 (HL-60(TB) leukemia) was 375 nM and the TGI (HL-60(TB) leukemia) was > 100000 nM. The GI50 (LOX IMVI melanoma) was 1070 nM, the TGI (LOX IMVI melanoma) was > 61800 nM and the GI50 (OVCAR-3 ovarian) was 523 nM. The TGI (OVCAR-3 ovarian) was 14400 nM, the GI50 (HOP-92 NSCLC) was 1230 nM and the TGI (HOP-92 NSCLC) was 45300 nM. The GI50 (MDA-MB-435) was 250 nM, the TGI (MDA-MB-435) was 805 nM and the GI50 (DU-145 prostate) was 2800 nM. The TGI (DU-145 prostate) was 36500 nM, the GI50 (HOP-62 NSCLC) was 1230 nM and the TGI (HOP-62 NSCLC) was > 62400 nM. For the same compound, the GI50 (HCT-15 colon) was 44.9 nM, the TGI (HCT-15 colon) was > 100000 nM and the GI50 (SF-268 CNS) was 1370 nM. The TGI (SF-268 CNS) was > 100000 nM, the GI50 (SF-539 CNS) was 497 nM and the TGI (SF-539 CNS) was 5230 nM. The GI50 (OVCAR-5 ovarian) was 2210 nM, the TGI (OVCAR-5 ovarian) was 64200 nM and the GI50 (A498 renal) was 286 nM. It also gave a TGI (A498 renal) of 5590 nM, a GI50 (MALME-3M melanoma) of 809 nM and a TGI (MALME-3M melanoma) of 24300 nM. The GI50 (SF-295 CNS) was 753 nM, the TGI (SF-295 CNS) was 19600 nM and the GI50 (KM12 colon) was 68.4 nM. For the same compound, the TGI (KM12 colon) was 29000 nM, the GI50 (M14 melanoma) was 448 nM and the TGI (M14 melanoma) was 32200 nM. The GI50 (TK-10 renal) was 4010 nM, the TGI (TK-10 renal) was 69100 nM and the GI50 (COLO 205 colon) was 2160 nM. For the same compound, the TGI (COLO 205 colon) was > 100000 nM, the GI50 (HCT-116 colon) was 469 nM and the TGI (HCT-116 colon) was > 76600 nM. The GI50 (A549 NSCLC) was 853 nM, the TGI (A549 NSCLC) was > 50400 nM and the GI50 (BT-549 breast) was 2210 nM. The TGI (BT-549 breast) was 40000 nM, the GI50 (RXF 393 renal) was 665 nM and the TGI (RXF 393 renal) was 10600 nM. The GI50 (IGROV1 ovarian) was 903 nM, the TGI (IGROV1 ovarian) was 61500 nM and the GI50 (NCI-H226 lung) was 2200 nM. For the same compound, the TGI (NCI-H226 lung) was > 46600 nM, the GI50 (SK-OV-3 ovarian) was 2770 nM and the TGI (SK-OV-3 ovarian) was 93700 nM. The GI50 (UO-31 renal) was 1410 nM and the TGI (UO-31 renal) was > 82300 nM.
